Patent publication EP4497440A1, “USE OF 7-TRIFLUOROMETHYL-7ALPHA,25-DIHYDROXYCHOLESTEROL IN THE TREATMENT AND MODULATION OF AUTOIMMUNE AND INFLAMMATORY DISEASES OF THE NERVOUS SYSTEM AND NEURODEGENERATIVE DISEASES” (Gdanski Uniwersytet Medyczny, priority 2023, dated 2025)
Several values for one entry are separate records, joined by “and”; a condition that tells them apart may be missing. Equal entries are not always repeated. Entries after “also recorded” stand apart in the source; their conditions may differ.

Key:
[1] = system: mice in the cuprizone model; experiment: Cuprizone model: luxol fast blue staining, lipoprotein (myelin) density in the corpus callosum; format: in vivo; conditions: 20 mg/kg subcutaneously once a day for 2 weeks after 9 weeks of cuprizone (group #5), compared to vehicle group #3
Description: Measurement of lipoprotein density in myelin sheaths, taken on sections of brains of the mice in the cuprizone model. The mice in the cuprizone model subject were divided into 6 groups: • #1. control group: regular cuprizone-free chow for 9 weeks. The mice were euthanised after 9 weeks and tissue samples were taken for analysis. In these mice no removal of myelin sheaths occurred. • #2. control group with cuprizone: chow containing cuprizone for 9 weeks. The mice were euthanised after 9 weeks and tissue samples were taken for analysis. In the mice fed with chow containing cuprizone myelin sheaths were removed. • #3. vehicle control group - the mice were fed with chow containing cuprizone for 9 weeks, and then with regular chow without cuprizone for 2 weeks. Over the 2 weeks on regular show the mice in the vehicle control group were first injected with vehicle #1: DMSO, intraperitoneally, 150 µl once a day, and then with vehicle #2: canola oil, subcutaneously, 150 µl once a day. • #4. barbadin control group - the mice were fed with chow containing cuprizone for 9 weeks and then with regular chow without cuprizone for 2 weeks. Over the 2 weeks on regular chow the mice in this group were injected with barbadin 0.3 mg/kg, intraperitoneally, 150 µl once a day and then with vehicle #2: canola oil, subcutaneously, 150 µl once a day. • #5. oxysterol experimental group - the mice were fed with chow containing cuprizone for 9 weeks and then with regular chow without cuprizone for 2 weeks. […] Brain sections sampled from the mice were histochemically stained with luxol fast blue (Abcam, cat. No. Ab 150675), and the intensity (density) of the lipid staining in the corpus callosum was measured using the ImageJ software (ImageJ (nih.gov)). […]

Ch25h, Cyp7b1, Hsd3b7 = experiment: mRNA level of synthesizing and degrading enzymes in the cerebellum, cuprizone model; format: in vivo, mice
Ebi2 receptor = experiment: Ebi2 mRNA level in the cerebellum, cuprizone model; format: in vivo, mice; conditions: during remyelination in the cuprizone model
[2] = in vivo, from reference [6]; cited from earlier work
white blood cells = experiment: Cuprizone model: blood morphology (white blood cell counts); format: in vivo, mice
Description: C (Fig 7) or #3 (Fig 8 and 9) vehicle control group - the mice were fed with chow containing cuprizone for 9 weeks, and then with regular chow without cuprizone for another 2 weeks. Over the 2 weeks on regular chow the mice in the vehicle control group were first injected vehicle #1: DMSO (intraperitoneal injection), 150 µl once a day, and then vehicle #2: canola oil, subcutaneously, 150 µl once a day.
#4 (Fig 8 and 9) barbadin control group - the mice were fed with chow containing cuprizone for 9 weeks, and then with regular chow without cuprizone for another 2 weeks. Over the 2 weeks on regular chow the mice in the group were injected barbadin 0.3 mg/kg, intraperitoneally, 150 µl once a day, and then vehicle #2: canola oil, subcutaneously, 150 µl once a day.
E (Fig 7) or #5 experimental group with oxysterol CF3-7α,25OHC - the mice were fed with chow containing cuprizone for 9 weeks, and then with regular chow without cuprizone for another 2 weeks. Over the 2 weeks on regular chow the mice in the group were injected vehicle #1: DMSO, intraperitoneally, 150 µl once a day, and CF3-7α,25OHC, dose: 20 mg/kg, subcutaneously, 150 µl once a day.
#6 (Fig 8 and 9) experimental group with barbadin + oxysterol CF3-7α,25OHC - the mice were fed with chow containing cuprizone for 9 weeks, and then with regular chow without cuprizone for another 2 weeks. Over the 2 weeks on regular chow the mice in the group were injected barbadin, 0.3 mg/kg, intraperitoneally, 150 µl once a day, and then one hour following the barbadin injection they were injected CF3-7α,25OHC, dose: 20 mg/kg, subcutaneously, 150 µl once a day.
The blood from the heart was sampled after the mice had been euthanised, and blood morphology test was performed using a standard diagnostic analyser. […] The lymphocyte count in peripheral blood of the mice which had been injected with CF3-7α,25OHC was lower by 50% compared to the control group of mice injected with vehicles (gr. #3 or C). The specific action of CF3-7α,25OHC leading to reduction of the lymphocyte count in blood finds confirmation in the results obtained for the mice of groups #4 (or D) and #6 (or F). Compared to the control group, the lymphocyte count in blood in the group of mice injected with barbadin (#4 or D) was lower only by 21%, and in the group of mice injected with barbadin + CF3-7α,25OHC by 7%. Following interaction with CF3-7α,25OHC, barbadin blocks internalisation of the EBI2 receptor from the cell membrane. The absence of any significant effect related to the treatment with barbadin or barbadin + CF3-7α,25OHC indicates a specific action of CF3-7α,25OHC on the EBI2 receptor and the consequential effects of that action, namely reduction of the count of circulating lymphocytes in blood. Moreover, the number of monocytes in group #5 (or E: mice treated with CF3-7α,25OHC) was lower by as much as 66% and the total leukocyte count (lymphocytes and monocytes included) was also substantially lower (by 51%), though only in the group of mice injected with CF3-7α,25OHC. In our subsequent in vivo tests (short-term pharmacology) we confirmed the action of CF3-7α,25OHC. In that test, too, it reduced the count of white blood cells. CF3-7α,25OHC reduces the lymphocyte count as early as following the 4 mg/kg dose and the effect lasts for 24 hours following administration.

[3] = system: pro-inflammatory cytokine IL1β; experiment: Cuprizone model: IL1β mRNA in cerebellum lysates by PCR
Description: Identifying the mRNA levels of pro-inflammatory cytokine IL1β in mouse cerebellum lysates (Fig 11).

[4] = after 14 days of treatment during remyelination in the cuprizone model

C[C@H](CCCC(C)(C)O)[C@H]1CC[C@H]2[C@H]3[C@H](CC[C@]12C)[C@@]1(C)CC[C@H](O)CC1=C[C@]3(O)C(F)(F)F [CF3-7α,25OHC, cholestene-7β-trifluoromethyl,3β,7α,25-triol]
lipoprotein density in the corpus callosum, higher by [1]: 16%
myelin density / myelin regeneration in the corpus callosum [1]: increased
myelin density / myelin regeneration in the corpus callosum ([1]; listed as CF3-7α25OHC): more efficient (or faster) myelin regeneration
expression level of the synthesizing (Ch25h, Cyp7b1) and degrading (Hsd3b7) enzymes (Ch25h, Cyp7b1, Hsd3b7): does not regulate the expression level
level of Ebi2 expression (Ebi2 receptor): increases the level of Ebi2 expression
in vivo half life [2]: 12 h
drop in eosinophils (white blood cells; [4]): 43%
drop in monocytes (white blood cells; [4]): 66%
drop in neutrophils (white blood cells; [4]): 14%
drop in the total number of white blood cells (total leukocyte count) (white blood cells; after 14 days of treatment during remyelination in the cuprizone model, compared to vehicle group): 51%
drop in lymphocytes (lymphocyte count in peripheral blood lower by) (white blood cells; after 14 days of treatment in the cuprizone model, CF3-7α,25OHC 20 mg/kg s.c., barbadin 0.3 mg/kg i.p., compared to vehicle group #3): 51% and 50%
number of white blood cells (leukocytes, lymphocytes, monocytes) (white blood cells; cuprizone model, group #5 (E)): went down; also recorded: substantially reduced
mRNA level of IL1β dropped by ([3]; cerebellum lysates, cuprizone model, compared to the group treated solely with vehicles): 28%
blood-brain barrier penetration ([3]; concluded from the IL1β effect in the cerebellum): penetrates the blood-brain barrier
pro-inflammatory cytokine IL1β in cerebellum lysates ([3]; cuprizone model, group #5): Reduction
